Laboratory results as given in patent publication US7807381B2, “Methods for assessing CDK5 activation and function” (The Board of Regents of the University of Texas System, priority 2007, dated 2010).

What was measured:
Cdk5 sites = experiment: Quantitative immunoblot of Cdk5-site phosphorylation in acute striatal slices incubated with NMDA; type: cell-based; details: NMDA at doses and times indicated, n=3-12
Method: (§1) FIGS. 5A-B—NMDA receptor activation inhibits Cdk5 and the cytoplasmic domain is a Cdk5 inhibitor. (FIG. 5A) Reduction in phosphorylation of three Cdk5 sites by NMDA. Quantitative immunoblot analyses is shown of acute striatal slices incubated with NMDA for the doses and times indicated, n=3-12. *p<0.05; **p<0.01 vs. control, one-way ANOVA with Dunnett's multiple comparison test. (FIG. 5B) Inhibition of Cdk5-dependent phosphorylation of inhibitor-1 by NR2B as assessed by time-course (top), dose-response (middle), and Line-Weaver Burke (bottom) analyses of in vitro phosphorylation reactions conducted in the presence of the indicated inhibitors or control proteins.
To determine if these observations were related, the inventors conducted in vitro phosphorylation reactions with Cdk5 and a test substrate, protein phosphatase inhibitor-1. […] Kinetic analysis confirmed that the NR2B receptor cytoplasmic domain functions as a potent and selective inhibitor of Cdk5 (IC50˜4 μM) and indicated a noncompetitive inhibition mechanism. […] These new data further confirm that NR2B can block Cdk5 activity, and further, that these interactions may be targeted for disruption so that Cdk5 may be uncoupled from NMDA receptors.

Cdk5 = Cdk5 (Homo sapiens, UniProt Q00535); experiment: in vitro phosphorylation reactions with Cdk5 and test substrate protein phosphatase inhibitor-1; type: biochemical; details: preliminary data
Method: as §1
To determine if these observations were related, the inventors conducted in vitro phosphorylation reactions with Cdk5 and a test substrate, protein phosphatase inhibitor-1. […] Kinetic analysis confirmed that the NR2B receptor cytoplasmic domain functions as a potent and selective inhibitor of Cdk5 (IC50˜4 μM) and indicated a noncompetitive inhibition mechanism. […]
Cdk5 phosphorylation activity assays may generally comprise ^32P-incoporation into substrates as determined by phosphorimager analysis. Alternatively, phosphorylation may be detected by either Western blot or ELISA using a control Cdk5 substrate and a phosphorylation state-specific antibody to a Cdk5 phosphorylation site on the substrate. […]

Cdk5, sequence (Q00535 whole entry, species assumed): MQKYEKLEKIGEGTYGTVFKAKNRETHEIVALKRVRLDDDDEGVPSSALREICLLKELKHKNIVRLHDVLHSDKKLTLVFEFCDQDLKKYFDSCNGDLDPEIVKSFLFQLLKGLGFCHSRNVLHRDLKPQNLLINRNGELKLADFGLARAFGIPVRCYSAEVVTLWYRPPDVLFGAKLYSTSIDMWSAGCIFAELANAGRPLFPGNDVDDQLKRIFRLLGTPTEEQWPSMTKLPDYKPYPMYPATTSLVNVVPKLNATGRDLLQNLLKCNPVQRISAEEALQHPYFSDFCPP

Molecule | phosphorylation of three Cdk5 sites (Cdk5 sites) | inhibition of Cdk5 (qualitative) (Cdk5)
CN[C@H](CC(=O)O)C(=O)O [NMDA] | Reduction | –
peptide encompassing amino acid residues 1101-1130 of NR2B: a peptide encompassing amino acid residues 1101-1130 of NR2B (EFDEIELAYRRRPPRSPDHKRYFRDKEGLR; UniProt Q13224 1101-1130, looked up, fragment) | – | effective inhibitor
